pIC50: −log10 of the molar value.
Legend:
[1] = molecular target: T1, GST-human KRas166 (G12V) GPPNHP (Homo sapiens, UniProt P01116, G12V); assay: KRas small-molecule screening by SPR (Biacore T200); type: binding; conditions: compound 100 uM, 5% DMSO buffer; immobilised GST-KRas166 (G12V) GPPNHP
T1 construct: made in house; host or cells: E. coli C41(DE3)
Outline: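 Biacore T200 screen: compounds at 100 uM final in 5% DMSO buffer (100 mM NaCl, 5 mM MgCl2) over GPPNHP-bound GST-KRas166 G12V captured by anti-GST antibody (10,000–15,000 RU) versus GST-only channel. Expected 1:1 Rmax 63 RU; DMSO solvent correction applied.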

HT1080 cells = assay: Cell viability assay 2 (CellTiterGlo), HT1080 cells; type: cell-based; conditions: Homo sapiens, HT-1080, cell line printed as HCT1080, 48 or 72 h
Procedure: Cancer cell lines were in seeded in ViewPlates-96 microplates (PerkinElmer). HT1080 cells at 7500 cells per well and cultured in DMEM, high glucose, GlutaMAX media containing 10% FBS at 37° C. in 5% CO2 atmosphere. Cells were cultured overnight and the compounds (dissolved in DMSO and diluted to 0.2% DMSO) were added to the cells at concentrations ranging from 0 to 20 μM. The cells were incubated under standard culture conditions for either 24, 48 or 72 h. Cell viability was as quantitated using the CellTiterGlo Luminescent Cell Viability Assay (Promega) according to the manufacturer's instructions to measure ATP generated by metabolically active cells. Luminescent signals were measured using an Envision 2103 Multilabel Microplate Reader (PerkinElmer). The luminescence signals obtained from the compound-treated cells were normalized against the signal for DMSO-only treated cells.

| SMILES | SPR Response Units [1] [Response Units] | pIC50 (HT1080 cells) |
| --- | --- | --- |
| COc1nc(-c2cccc3c2OCCO3)ccc1Nc1ccc(CN(C)C)cc1 [compound 56, [6-(2,3-Dihydro-benzo[1,4]dioxin-5-yl)-2-methoxy-pyridin-3-yl]-(4-dimethylaminomethyl-phenyl)-amine] | 116 | 5.00 |
| COc1cc(-c2cccc3c2OCCO3)ccc1Nc1cccc(CN(C)C)c1.O=CO [compound 72, [4-(2,3-Dihydro-benzo[1,4]dioxin-5-yl)-2-methoxy-phenyl]-(3-dimethylaminomethyl-phenyl)-amine formate salt] | 56 | – |
